Measurements reported in PMC5374673, “Activity of the novel BCR kinase inhibitor IQS019 in preclinical models of B-cell non-Hodgkin lymphoma” (Journal of Hematology & Oncology, 2017).

Columns and labels:
Format in all cases: biochemical
Bmx = molecular target: T1, Bmx (Homo sapiens, UniProt P51813); test: 400-kinase panel, residual activity at […]
T1 sequence (P51813 1-675): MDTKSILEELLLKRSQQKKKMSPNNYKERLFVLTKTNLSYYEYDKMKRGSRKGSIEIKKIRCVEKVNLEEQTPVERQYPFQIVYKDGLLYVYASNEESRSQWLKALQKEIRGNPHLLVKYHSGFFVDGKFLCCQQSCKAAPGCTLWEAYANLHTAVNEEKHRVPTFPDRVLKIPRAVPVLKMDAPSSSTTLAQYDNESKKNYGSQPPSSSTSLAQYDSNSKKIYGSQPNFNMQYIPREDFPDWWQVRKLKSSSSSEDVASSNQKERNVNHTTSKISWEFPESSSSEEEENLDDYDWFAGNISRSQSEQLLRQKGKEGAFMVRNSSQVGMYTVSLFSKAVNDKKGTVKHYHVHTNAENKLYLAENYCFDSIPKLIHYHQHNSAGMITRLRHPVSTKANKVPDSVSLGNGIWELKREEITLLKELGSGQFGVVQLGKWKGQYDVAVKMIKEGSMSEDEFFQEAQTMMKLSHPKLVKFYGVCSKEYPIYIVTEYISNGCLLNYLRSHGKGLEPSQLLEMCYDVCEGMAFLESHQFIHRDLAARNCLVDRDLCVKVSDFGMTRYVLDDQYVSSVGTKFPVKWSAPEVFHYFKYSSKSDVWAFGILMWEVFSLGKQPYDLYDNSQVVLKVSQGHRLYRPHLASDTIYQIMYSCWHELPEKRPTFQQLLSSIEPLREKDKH

Syk = Syk (Homo sapiens, UniProt P43405); test: radiometric kinase assay and 400-kinase panel (ProQinase); also Ba/F3 cells expressing the kinase domain
Btk = Btk (Homo sapiens, UniProt Q06187); test: as above
Lyn = Lyn (Homo sapiens, UniProt P07948); test: as above
Chain of Lyn (P07948 2-512): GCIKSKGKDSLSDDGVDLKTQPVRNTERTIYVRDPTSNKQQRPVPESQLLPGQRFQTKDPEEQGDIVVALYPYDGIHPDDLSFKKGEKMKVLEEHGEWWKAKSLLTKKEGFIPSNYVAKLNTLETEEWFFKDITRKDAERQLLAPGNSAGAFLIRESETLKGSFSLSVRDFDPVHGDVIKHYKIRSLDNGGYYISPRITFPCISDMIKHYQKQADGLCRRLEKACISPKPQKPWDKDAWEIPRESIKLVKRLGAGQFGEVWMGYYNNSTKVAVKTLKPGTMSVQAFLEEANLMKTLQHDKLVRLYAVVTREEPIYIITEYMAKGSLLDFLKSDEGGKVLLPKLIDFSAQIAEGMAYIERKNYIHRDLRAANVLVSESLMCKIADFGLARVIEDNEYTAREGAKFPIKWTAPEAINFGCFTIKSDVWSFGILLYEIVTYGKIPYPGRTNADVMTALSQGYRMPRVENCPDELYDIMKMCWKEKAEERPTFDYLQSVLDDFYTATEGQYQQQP

Chain of Btk (Q06187 2-659): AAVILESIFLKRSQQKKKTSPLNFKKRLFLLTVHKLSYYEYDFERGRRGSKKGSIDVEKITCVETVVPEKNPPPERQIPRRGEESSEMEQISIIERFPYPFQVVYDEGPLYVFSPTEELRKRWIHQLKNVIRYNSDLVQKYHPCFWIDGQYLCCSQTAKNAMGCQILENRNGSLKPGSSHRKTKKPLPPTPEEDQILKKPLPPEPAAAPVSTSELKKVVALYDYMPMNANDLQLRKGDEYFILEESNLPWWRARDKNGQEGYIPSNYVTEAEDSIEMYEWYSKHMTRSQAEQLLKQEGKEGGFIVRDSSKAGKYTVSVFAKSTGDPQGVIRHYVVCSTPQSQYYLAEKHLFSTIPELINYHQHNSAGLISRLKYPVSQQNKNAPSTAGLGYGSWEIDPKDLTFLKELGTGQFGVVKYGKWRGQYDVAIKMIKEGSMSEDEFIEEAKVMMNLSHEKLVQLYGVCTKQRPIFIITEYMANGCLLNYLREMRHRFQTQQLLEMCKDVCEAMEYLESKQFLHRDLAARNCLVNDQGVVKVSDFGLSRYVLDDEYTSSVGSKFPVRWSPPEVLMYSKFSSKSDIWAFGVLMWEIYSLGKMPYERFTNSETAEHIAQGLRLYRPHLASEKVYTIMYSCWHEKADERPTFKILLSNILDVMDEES

CN1CCN(c2ccc(Nc3nc(N)c4cc(-c5c(Cl)cccc5Cl)c(=O)n(C)c4n3)cc2)CC1 [compound 19, IQS019]
400-kinase panel, residual activity at 0.1 and 10 μM (Bmx): the member of the Tec family of non-receptor tyrosine kinases, Bmx
IC50 (Syk): 1600 nM
IC50 (Btk): 2100 nM
IC50 (Lyn): 150 nM
